Series [1] concerns P450 drug metabolizing enzyme present in the liver microsome. Kind of series: In vitro drug metabolism test using liver microsome. The series is classed as in vitro ADME. The following applies: human and rat liver microsome, test compound 20 ng/ml, 37° C., 10, 20 and 30 minutes, residual ratio. The procedure: 1) Human and rat liver microsome suspension (human microsome: Xenotech, rat microsome: Charles River) was diluted with 100 mM Na-K phosphate buffer (pH 7.4) to a protein concentration of 0.5 mg/ml. To a 100 μl portion of this suspension were added 2 μl of a test compound solution (a 10 μg/ml acetonitrile solution), 500 μl of 200 mM Na-K phosphate buffer (pH 7.4), 50 μl of 1 mM EDTA-NaOH (pH 7.4) and 200 μl of purified water, thereby preparing a substrate solution (concentration in the reaction solution: liver microsome (as the protein content) 0.05 mg/ml, test compound 20 ng/ml, 100 mM Na-K phosphate buffer, 0.1 mM EDTA-NaOH).
2) An NADPH production system was prepared by mixing 42 mg of NADP, 5 ml of 100 mM […] (G6P) and 5 ml of 100 mM MgCl2, and adding 57 μl of G6P dehydrogenase (about 1750 U/5 mg/ml) to the mixture. This was heated at 37° C. for 5 minutes and then ice-cooled until its use.
3) A 900 μl portion of the substrate solution was pre-incubated at 37° C. for 5 minutes, and then 100 μl of the NADPH production system was added thereto, following by reaction at 37° C. for 10, 20 and 30 minutes. After termination of the reaction by adding 2 ml of ethyl acetate, the whole was ice-cooled. In this connection, a control sample was prepared by adding 100 μl of the NADPH production system after adding 2 ml of ethyl acetate (0 minute reaction).
4) To the reaction solution was added 100 μl of an internal standard substance having a predetermined concentration (an acetonitrile solution), 1 ml of 0.5 M phosphoric acid and 2 ml of ethyl acetate, followed by shaking for 10 minutes. After 10 minutes of centrifugation at 2,500 rpm, the ethyl acetate layer was separated and evaporated to dryness, and the residue was dissolved in 100 μl of an HPLC mobile phase solvent. The test compound was eluted after about 12 minutes, and the internal standard substance after about 16 minutes, under the following conditions. (HPLC measuring conditions mobile phase: acetonitrile/20 mM ammonium acetate=2:3 (v/v), column: Discovery RP Amide C16, 4.6×35 mm (SUPELCO), flow rate: 0.8 ml/min., detection: UV 286 nm)
5) A ratio (residual ratio) of the peak height ratio after 10, 20 or 30 minutes of the reaction to the peak height ratio of each test compound in the control (peak height ratio to the internal standard substance) was calculated.

Series [2] in a line: Oral absorbability and pharmacokinetic profile evaluation test using type IV PDE inhibitory activity as the index. The following applies: orally administered to male Fisher rat at 3 mg/kg; plasma type IV PDE inhibitory activity as index; in comparison with a comparative compound. The series is classed as in vivo. How it is done: Test Example 3. Oral absorbability and pharmacokinetic profile evaluation test using type IV PDE inhibitory activity as the index
The following assay was carried out in order to evaluate oral absorbability and pharmacokinetic profiles of the type IV PDE-inhibiting compounds of the invention.
1) Each test compound suspended in purified water containing 0.5% methyl cellulose was orally administered to a seven-week-old male Fisher rat at a dose of 3 mg/kg. In the control group, a solvent (0.5% methyl cellulose in purified water, 3 ml/kg) was administered in the same manner. After the oral administration, blood samples were periodically collected in the presence of heparin from the caudal vein of each rat under ether anesthesia, and plasma was prepared in the usual way.
2) The plasma prepared from each rat administered with the test compound or solvent was added to the type IV PDE measuring system shown in the above Test Example 1 so as to be a final concentration of 0.1%, and the type IV PDE inhibitory activity was measured.

Structures are written as SMILES.

In general, melting point refers to the temperature, or range, at which the solid turns liquid. In turn, `CCn1c(=O)c(CCC(=O)O)c(-c2cccc(Cl)c2)c2ccc(Cl)nc21` [Example 41, 3-[7-chloro-4-(3-chlorophenyl)-1-ethyl-2-oxo-1,2-dihydro-1,8-naphthyridin-3-yl]propanoic acid] came in with a melting point of 197 to 199 °C. For the same molecule, the “metabolism by the P450 drug metabolizing enzyme present in the liver microsome” value (shortened to “metabolism”) in series [1] was “hardly metabolized”. Also, in series [2], the “oral absorbability and metabolic stability” value is “good oral absorbability and metabolic stability”.
In turn, `CCn1c(=O)c(CCC(=O)O)c(-c2cccc(Cl)c2)c2ccc(C=NO)nc21` [Example 43, 3-[4-(3-chlorophenyl)-1-ethyl-7-hydroxyiminomethyl-2-oxo-1,2-dihydro-1,8-naphthyridin-3-yl]propanoic acid] returned a melting point of 234 to 238 °C. Moreover, in series [1], the “metabolism” value is given as “hardly metabolized”. For the same molecule, the “oral absorbability and metabolic stability” value in series [2] is “good oral absorbability and metabolic stability”.
Molecule `CCn1c(=O)c(CCC(=O)O)c(C2CCCCC2)c2ccc(C)nc21` [Example 47, 3-(4-cyclohexyl-1-ethyl-7-methyl-2-oxo-1,2-dihydro-1,8-naphthyridin-3-yl)propanoic acid] came in with a melting point of 155 to 156 °C. The “metabolism” value in series [1] is “hardly metabolized”. Further, the “oral absorbability and metabolic stability” value in series [2] was “good oral absorbability and metabolic stability”.
